Square brackets hold non-standard residues; d marks the D form. Peptide text beside a SMILES is read from it.
Legend:
[1] = Induction of programmed cell death in human MEC1 cells at 200 uM after 2 hrs by Annexin-V/propidium iodide staining based FACS analysis; type: functional
[2] = Drug degradation in human serum at 10 mg/ml after 2 hrs by HPLC analysis; type: ADME
[3] = Aqueous solubility of compound in 50 mM sodium succinate buffer at >1 mM at pH 5 by 1D 1H NMR spectroscopic analysis; type: physicochemical
[4] = Metabolic stability in human serum at 10 mg/ml at 37 degC after 2 hrs by HPLC analysis; type: ADME
[5] = Aqueous solubility of compound in 50 mM sodium succinate buffer at 2 mM at pH 5 by 1D 1H NMR spectroscopic analysis; type: physicochemical; details: buffer, pH 5, 2000 µM

`CC(C)[C@H](NC(=O)[C@H](Cc1ccc(O)cc1)NC(=O)[C@H](Cc1ccccc1)NC(=O)[C@H](CCCNC(=N)N)NC(=O)[C@H](N)CCCCN)C(=O)N[C@H](C(=O)N[C@@H](C)C(=O)N[C@@H](Cc1c[nH]c2ccccc12)C(=O)N[C@@H](CCCCN)C(=O)N[C@H](CCCCN)C(=O)O)C(C)C` (H-[dK]RFYVVAWK[dK]-OH) gave an Activity [1] of 6%.
`CSCC[C@H](NC(=O)[C@@H](NC(=O)[C@@H](NC(=O)[C@H](Cc1ccc(O)cc1)NC(=O)[C@H](Cc1ccccc1)NC(=O)[C@H](CCCNC(=N)N)NC(=O)[C@H](N)CCCCN)C(C)C)C(C)C)C(=O)N[C@@H](Cc1c[nH]c2ccccc12)C(=O)N[C@@H](C)C(=O)N[C@H](CCCCN)C(=O)O` (H-[dK]RFYVVMWA[dK]-OH) showed an Activity [1] of 46%.
For `CSCC[C@H](NC(=O)[C@@H](NC(=O)[C@@H](NC(=O)[C@H](C)NC(=O)[C@H](Cc1ccccc1)NC(=O)[C@H](CCCNC(=N)N)NC(=O)[C@H](N)CCCCN)C(C)C)C(C)C)C(=O)N[C@@H](Cc1c[nH]c2ccccc12)C(=O)N[C@@H](CCCCN)C(=O)N[C@H](CCCCN)C(=O)O`, the Activity [1] was 0%.
With `CSCC[C@H](NC(=O)[C@@H](NC(=O)[C@@H](NC(=O)[C@H](Cc1ccc(O)cc1)NC(=O)[C@H](C)NC(=O)[C@H](CCCNC(=N)N)NC(=O)[C@H](N)CCCCN)C(C)C)C(C)C)C(=O)N[C@@H](Cc1c[nH]c2ccccc12)C(=O)N[C@@H](CCCCN)C(=O)N[C@H](CCCCN)C(=O)O` (H-[dK]RAYVVMWK[dK]-OH) the Activity [1] was 6%.
For `CSCC[C@H](NC(=O)[C@@H](NC(=O)[C@H](C)NC(=O)[C@H](Cc1ccc(O)cc1)NC(=O)[C@H](Cc1ccccc1)NC(=O)[C@H](CCCNC(=N)N)NC(=O)[C@H](N)CCCCN)C(C)C)C(=O)N[C@@H](Cc1c[nH]c2ccccc12)C(=O)N[C@@H](CCCCN)C(=O)N[C@H](CCCCN)C(=O)O` (H-[dK]RFYAVMWK[dK]-OH), the Activity [1] was 12%.
With Ac-KRFYVVMWKK-NH2 the Stability [2] was “Unstable”, the solubility [3] was “Soluble” and the Activity [1] was 30%.
For `CSCC[C@H](NC(=O)[C@@H](NC(=O)[C@@H](NC(=O)[C@H](Cc1ccc(O)cc1)NC(=O)[C@H](Cc1ccccc1)NC(=O)[C@H](CCCNC(=N)N)NC(C)=O)C(C)C)C(C)C)C(=O)N[C@@H](Cc1c[nH]c2ccccc12)C(=O)N[C@@H](CCCCN)C(N)=O`, the Stability [4] was “Stable”, the Activity [1] was 27% and the solubility [5] was “Insoluble”.
For `CSCC[C@H](NC(=O)[C@H](C)NC(=O)[C@@H](NC(=O)[C@H](Cc1ccc(O)cc1)NC(=O)[C@H](Cc1ccccc1)NC(=O)[C@H](CCCNC(=N)N)NC(=O)[C@H](N)CCCCN)C(C)C)C(=O)N[C@@H](Cc1c[nH]c2ccccc12)C(=O)N[C@@H](CCCCN)C(=O)N[C@H](CCCCN)C(=O)O` (H-[dK]RFYVAMWK[dK]-OH), the Activity [1] was 30%.
